Source: patent publication US7626044B2, “Triptolide derivatives and their uses” (priority 2002, dated 2009)
pEC50, pIC50: −log10 of the molar value. Values joined by “and” are separate entries in the source; they are usually repeats but may differ in a detail not shown here. Equal values may be shown once. Read-outs that look alike come from different tables or passages of the source.

How the values were obtained:
lymphocyte = experiment: MTT cytotoxic assay; format: cell-based, mouse; settings: mouse spleen cells, 48 hours, MTT
Experimental: Mice were sacrificed by cervical dislocation, and spleens were collected under sterile conditions then teased through a nylon mesh. Erythrocytes were lysed. Cells were washed and resuspended at 5×10^6/ml in RPMI-1640 media supplemented with 10% FBS.
For one 96 well plate assay, 90 μl of cells, 45 μl of sample and 45 μl of RPMI-1640 media with 10% FBS were added into each well with the final volume 180 μl. The negative control wells (containing 90 μl of RPMI-1640 media with 10% FBS and 90 pt of cells), blank control (180 μl of RPMI-1640 media with 10% FBS) were also performed. Incubate plate for 48 hours at 37° C., 5% CO2 in a humidified incubator. 18 μl of MTT solution (5 mg/ml) was added for 6-7 h.
90 μl of MTT lysis solution was added to each well followed by a further incubation at 37° C. for 6-7 h. And the absorbance was measured at 570 nm using a plate reader.

B lymphocyte = experiment: LPS induced B-lymphocyte proliferation ([3H]thymidine); format: cell-based, mouse
Experimental: Mice were sacrificed by cervical dislocation, and spleens were collected under sterile conditions then teased through a nylon mesh. Erythrocytes were lysed. Cells were washed and resuspended at 5×10^6/ml in RPMI-1640 media containing 10% FBS. For one 96 well plate assay, 100 pt of cells, 50 μl of sample and 50 μl of ConA/LPS were added into each well with the final volume 200 μl. The control wells were set up with 50 μl of RPMI-1640 media instead of ConA/LPS.
Plates were incubated for 48 h (ConA) or 60 h (LPS), respectively, at 37° C., 5% CO2 in a humidified incubator. In the last 8 h of incubation, 25 μl (1.9×10^10 Bq) of [^3H]thymidine was added. After plates were incubated for 48 h, the plates (ConA) were stored at −20° C., then after another 12 h, the plates (LPS) were stored at −20° C.
At the end of incubation, pulsed cells were harvested on a glass filter using a cell harvester ([…]96®, TOMTEC) and allowed to dry. Incorporation of radioactive thymidine was determined by using liquid Scintillation and Luminescence Counters (MicroBeta Trilux®, PerkinElmer).

[1] = test system: Sac-stimulated lymphocytes; experiment: Cytokine production from Sac-stimulated lymphocytes (ELISA); format: cell-based, mouse; settings: for IFN-γ production by lymphocytes stimulated with Sac, Mean Value: without drug 1302.6; for IL-12 production by lymphocytes stimulated with Sac: without drug 980; for IL-6 production by lymphocytes stimulated with Sac: without drug 1528; for IL-10 production by lymphocytes stimulated with Sac: without drug 2306; for TNF-α production by lymphocytes stimulated with Sac: without drug 4062
Experimental: Mice were sacrificed by cervical dislocation, and spleens were collected under sterile conditions then teased through a nylon mesh. Erythrocytes were lysed. Cells were washed and resuspended at 5×10^6/ml in RPMI-1640 media with 10% FBS.
1 ml of spleen cells were treated with or without ConA (5 μg/ml) or Sac (1:10000) and in the presence or absence of drugs in a final volume of 2 ml.
After 24 h culture at 37° C., 5% CO2 in a humidified incubator, cell-free supernatant was collected and frozen at −20° C. for ELISA.
TMB was taken as the enzyme substrate. The absorbance was measured at 450/570 nm by BioRad microplate reader. […]

[2] = test system: anti-SRBC specific antibodies production by B lymphocytes; format: in vivo, mouse; settings: ICR mice
[3] = test system: collagen-induced arthritis; experiment: Collagen-induced arthritis in DBA/1 mice; format: in vivo, mouse
[4] = test system: P-388 (murine lymphoma cell); experiment: Tumor cell proliferation, P-388; format: cell-based; settings: read-out: Inhibitory effect on tumor cell proliferation IC50
[5] = test system: A-549 (human lung carcinoma); experiment: Tumor cell proliferation, A-549; format: cell-based; settings: read-out: Inhibitory effect on tumor cell proliferation IC50
[6] = test system: MKN-28 (human gastric cancer); experiment: Tumor cell proliferation, MKN-28; format: cell-based; settings: read-out: Inhibitory effect on tumor cell proliferation IC50
[7] = test system: BEL-7402 (human hepatic carcinoma cell); experiment: Tumor cell proliferation, BEL-7402; format: cell-based; settings: read-out: Inhibitory effect on tumor cell proliferation IC50
[8] = test system: HO-8910 (human ovary cancer cells); experiment: Tumor cell proliferation, HO-8910; format: cell-based; settings: read-out: Inhibitory effect on tumor cell proliferation IC50
[9] = test system: WI-38 (human lung fibroblasts); experiment: Cell proliferation, WI-38; format: cell-based; settings: read-out: Inhibitory effect on tumor cell proliferation IC50
mice = experiment: Acute toxicity (LD50) test in mice, oral; format: in vivo, mouse; settings: single oral administration
Experimental: Mice were single administered with LLDT-8 by oral, and observed for clinical signs of toxicity immediately and the following 14 days. Necropsy was performed on all animals that died and on all survivors at the end of the 2-week study. Death was seen from the next day after treatment and reached a peak at the 2-3 day. […] There was no gender difference in survival.

CC(C)[C@]12O[C@H]1[C@@H]1O[C@]13[C@]1(O[C@H]1C[C@@]1(O)C4=C(CC[C@]31C)C(=O)OC4)[C@@H]2O [LLDT-8, (5R)-5-hydroxytriptolide]
IC50 (concentration required to reduce the viability of cells by 50%) (lymphocyte): 0.0782 µg/mL | pIC50 (lymphocyte; read-out: IC50 (concentration required to reduce the viability of cells by 50%)): 6.68 and 6.70 | ED50 for inhibiting B lymphocyte proliferation induced by LPS (B lymphocyte; 60 h): 0.0598 µg/mL | pEC50 (B lymphocyte; 60 h, read-out: ED50 for inhibiting B lymphocyte proliferation induced by LPS): 6.80 | more potent inhibitory activity than CsA (B lymphocyte proliferation) (B lymphocyte; compared with CsA): about 4.3 fold | IFN-γ production by lymphocytes stimulated with Sac, Mean Value ([1]; 0.01 nM): 809.7 pg/mL | IFN-γ production by lymphocytes stimulated with Sac, Mean Value ([1]; 0.1 nM): 850.5 pg/mL | IL-12 production by lymphocytes stimulated with Sac ([1]; 0.3 nM): 917 pg/mL | IL-6 production by lymphocytes stimulated with Sac ([1]; 0.3 nM): 1585 pg/mL | IL-10 production by lymphocytes stimulated with Sac ([1]; 0.3 nM): 2866 pg/mL | TNF-α production by lymphocytes stimulated with Sac ([1]; 0.3 nM): 4686 pg/mL | IFN-γ production by lymphocytes stimulated with Sac, Mean Value ([1]; 1 nM): 810.3 pg/mL | IL-12 production by lymphocytes stimulated with Sac ([1]; 3 nM): 939 pg/mL | IL-6 production by lymphocytes stimulated with Sac ([1]; 3 nM): 1403 pg/mL | IL-10 production by lymphocytes stimulated with Sac ([1]; 3 nM): 2816 pg/mL | TNF-α production by lymphocytes stimulated with Sac ([1]; 3 nM): 3899 pg/mL | IFN-γ production by lymphocytes stimulated with Sac, Mean Value ([1]; 10 nM): 465.3 pg/mL | IL-12 production by lymphocytes stimulated with Sac ([1]; 30 nM): 602 pg/mL | IL-6 production by lymphocytes stimulated with Sac ([1]; 30 nM): 989 pg/mL | IL-10 production by lymphocytes stimulated with Sac ([1]; 30 nM): 3262 pg/mL | TNF-α production by lymphocytes stimulated with Sac ([1]; 30 nM): 3649 pg/mL | IFN-γ production by lymphocytes stimulated with Sac, Mean Value ([1]; 100 nM): 227.4 pg/mL | QHS OD value ([2]; Table 11, i.p. 4 times, dosage 0.04 mg/kg, control 0.208): 0.175 | C3 ([2]; Table 11, i.p. 4 times, dosage 0.04 mg/kg, control 16.8): 19.5 μg/10 μl | Body weight ([2]; Table 11, i.p. 4 times, dosage 0.04 mg/kg, control 23.5): 23.0 g | Thymus ([2]; Table 11, i.p. 4 times, dosage 0.04 mg/kg, control 39.6): 32.1 mg | Spleen ([2]; Table 11, i.p. 4 times, dosage 0.04 mg/kg, control 66.4): 74.8 mg/10 g | Total IgG ([2]; Table 11, i.p. 4 times, dosage 0.04 mg/kg, control 185.5): 176.6 μg/10 μl | QHS OD value ([2]; Table 11, i.p. 4 times, dosage 0.2 mg/kg, control 0.208): 0.162 | C3 ([2]; Table 11, i.p. 4 times, dosage 0.2 mg/kg, control 16.8): 19.7 μg/10 μl | Body weight ([2]; Table 11, i.p. 4 times, dosage 0.2 mg/kg, control 23.5): 23.1 g | Thymus ([2]; Table 11, i.p. 4 times, dosage 0.2 mg/kg, control 39.6): 36.9 mg | Spleen ([2]; Table 11, i.p. 4 times, dosage 0.2 mg/kg, control 66.4): 76.3 mg/10 g | Total IgG ([2]; Table 11, i.p. 4 times, dosage 0.2 mg/kg, control 185.5): 165.9 μg/10 μl | QHS OD value ([2]; Table 11, i.p. 4 times, dosage 1 mg/kg, control 0.208): 0.158 | C3 ([2]; Table 11, i.p. 4 times, dosage 1 mg/kg, control 16.8): 19.4 μg/10 μl | Body weight ([2]; Table 11, i.p. 4 times, dosage 1 mg/kg, control 23.5): 22.3 g | Thymus ([2]; Table 11, i.p. 4 times, dosage 1 mg/kg, control 39.6): 36.6 mg | Spleen ([2]; Table 11, i.p. 4 times, dosage 1 mg/kg, control 66.4): 59.6 mg/10 g | Total IgG ([2]; Table 11, i.p. 4 times, dosage 1 mg/kg, control 185.5): 182.9 μg/10 μl | QHS OD value ([2]; Table 12, p.o. 4 times, dosage 0.04 mg/kg, control 0.38): 0.23 | C3 ([2]; Table 12, p.o. 4 times, dosage 0.04 mg/kg, control 7.9): 6.7 μg/10 μl | Body weight ([2]; Table 12, p.o. 4 times, dosage 0.04 mg/kg, control 23.4): 23.0 g | Thymus ([2]; Table 12, p.o. 4 times, dosage 0.04 mg/kg, control 28.8): 28.7 mg | Spleen ([2]; Table 12, p.o. 4 times, dosage 0.04 mg/kg, control 55.7): 69.0 mg/10 g | Total IgG ([2]; Table 12, p.o. 4 times, dosage 0.04 mg/kg, control 117): 123 μg/10 μl | QHS OD value ([2]; Table 12, p.o. 4 times, dosage 0.2 mg/kg, control 0.38): 0.34 | C3 ([2]; Table 12, p.o. 4 times, dosage 0.2 mg/kg, control 7.9): 7.9 μg/10 μl | Body weight ([2]; Table 12, p.o. 4 times, dosage 0.2 mg/kg, control 23.4): 24.0 g | Thymus ([2]; Table 12, p.o. 4 times, dosage 0.2 mg/kg, control 28.8): 36.6 mg | Spleen ([2]; Table 12, p.o. 4 times, dosage 0.2 mg/kg, control 55.7): 61.6 mg/10 g | Total IgG ([2]; Table 12, p.o. 4 times, dosage 0.2 mg/kg, control 117): 116 μg/10 μl | QHS OD value ([2]; Table 12, p.o. 4 times, dosage 1 mg/kg, control 0.38): 0.24 | C3 ([2]; Table 12, p.o. 4 times, dosage 1 mg/kg, control 7.9): 6.8 μg/10 μl | Body weight ([2]; Table 12, p.o. 4 times, dosage 1 mg/kg, control 23.4): 23.0 g | Thymus ([2]; Table 12, p.o. 4 times, dosage 1 mg/kg, control 28.8): 32.5 mg | Spleen ([2]; Table 12, p.o. 4 times, dosage 1 mg/kg, control 55.7): 63.7 mg/10 g | Total IgG ([2]; Table 12, p.o. 4 times, dosage 1 mg/kg, control 117): 118 μg/10 μl | suppressive effect on CIA at lower doses ([3]; 0.2 and 0.04 mg/Kg/d, dose-dependent): Suppressive effect was also observed | Anti-collagen specific antibody levels ([3]; compared with untreated CIA mice): reduced dose-dependently | severity and incidence of CIA ([3]; i.p. 1 mg/Kg/d, compared with untreated CIA mice): effectively reduced severity and incidence of CIA | pIC50 [4]: 7.10 | pIC50 [5]: 7.49 | pIC50 [6]: 6.41 | pIC50 [7]: 7.07 | pIC50 [8]: 6.66 | pIC50 [9]: 6.32 | LD50 95% confidence limits (mice; mice): 5.4 to 8.4 mg/kg | LD50 (mice; mice, 14 days, Bliss' method): 6.8 mg/kg | gross pathology (hemorrhage) (mice): Obvious hemorrhage was seen at pylorus, duodenum, jejunum and ileum | pathological changes in tissues by gross necropsy in survivors at day 15 (mice): No significant pathological changes
